Data reported in publication PMC11062899, “De novo development of small cyclic peptides that are orally bioavailable” (Nature Chemical Biology, 2023).
Values joined by “and” are separate entries in the source; they are usually repeats but may differ in a detail not shown here. Identical values can stand only once. Like-named read-outs stand apart in the source and are kept apart here.

Key:
[1] = Passive artificial membrane permeability (PAMPA);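 as to Permeability% Average: top well sample relative to theoretical equilibrium sample by TIC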
[2] = biological target: human α-thrombin (Homo sapiens, UniProt P00734); assay: Protease inhibition, Ki for human α-thrombin (fluorogenic substrate Z-Gly-Gly-Arg-AMC); assay type: biochemical; details: for Human alpha thrombin inhibition, slope normalized to DMSO: replicates R1-R3
Experimental: (§1) The inhibition constants (Ki) of cyclic peptides were calculated by measuring thrombin inhibition in the presence of different concentrations of the cyclic peptides. […] Human α-thrombin (Molecular Innovations) and rat α-thrombin (Molecular Innovations) were used at final concentrations of 2 nM and 3 nM, respectively, and fluorogenic substrate (Z-Gly-Gly-Arg-AMC, Bachem) was used at a concentration of 50 μM. Enzymatic activity was determined by measuring fluorescent gain on a Tecan Infinite M200 Pro microplate reader (excitation: 360 nm, emission: 465 nm) or a PHERAstar FSX microplate reader (excitation: 380 nm, emission: 440 nm) for 30 min at 25 °C with a fluorescent readout every 3 min. The two instruments were controlled with Tecan Infinite M200 Pro instrument software (iControl, version 1.12) and PHERAstar FSX software (version 5.70, edition 8), respectively. Protease inhibition was calculated by comparing the enzymatic activity to a control without cyclic peptide.
(§2) Half maximal inhibitory concentration (IC50) values were determined using a four-parameter logistic regression model in GraphPad Prism 9 to fit sigmoidal curves to the acquired data points according to equation (2) below.2 y=b+a−b/1+10^(logIC50−x)p where a and b represent the measured inhibition maximum and minimum, respectively; x is the logarithm of peptide concentration; y is the thrombin activity compared to a control without the cyclic peptide; and p is the Hill coefficient.
(§3) Ki values were calculated using the IC50 and the Cheng–Prusoff equation (equation (3)).3 Ki=IC50/1+S0/Km where Km is the Michaelis–Menten constant of the enzyme for the substrate used in the assay, and [S]0 is the initial substrate concentration.

[3] = biological target: T1, rat α-thrombin (Rattus norvegicus, UniProt P18292); assay: Protease inhibition, Ki for rat α-thrombin (fluorogenic substrate Z-Gly-Gly-Arg-AMC); assay type: biochemical; details: for Rat alpha thrombin inhibition, slope normalized to DMSO: replicates R1-R3
T1 construct: rat α-thrombin (Molecular Innovations) were used at final concentrations of 2 nM and 3 nM; purchased Molecular Innovations
Experimental: as §1, §2, §3

[4] = peptide concentration 1.00E+02 uM
[5] = peptide concentration 1.19E-05 uM
[6] = peptide concentration 1.22E-02 uM
[7] = peptide concentration 1.25E+01 uM
[8] = peptide concentration 1.53E-03 uM
[9] = peptide concentration 1.56E+00 uM
[10] = peptide concentration 1.91E-04 uM
[11] = peptide concentration 1.95E-01 uM
[12] = peptide concentration 2.38E-05 uM
[13] = peptide concentration 2.44E-02 uM
[14] = peptide concentration 2.50E+01 uM
[15] = peptide concentration 3.05E-03 uM
[16] = peptide concentration 3.12E+00 uM
[17] = peptide concentration 3.81E-04 uM
[18] = peptide concentration 3.91E-01 uM
[19] = peptide concentration 4.77E-05 uM
[20] = peptide concentration 4.88E-02 uM
[21] = peptide concentration 5.00E+01 uM
[22] = peptide concentration 6.10E-03 uM
[23] = peptide concentration 6.25E+00 uM
[24] = peptide concentration 7.63E-04 uM
[25] = peptide concentration 7.81E-01 uM
[26] = peptide concentration 9.54E-05 uM
[27] = peptide concentration 9.77E-02 uM

PAMPA permeability: % permeability ([1]; 50 μM, 12–18 h, acceptor concentration relative to equilibrium): 32 ± 6% | Permeability% (single replicates R1–R3) ([1]; 50 μM, 13 h (Fig. 5d)): 25.39% and 36.84% and 33.06% | Permeability% Average ([1]; 50 μM, 13 h (Fig. 5d)): 31.8% | Papp at 50 μM ([1]; PAMPA, pH 7.4): 3.47 ×10⁻⁶ cm/s | Ki ([2]; average of R1-R3, read-out: Human alpha thrombin inhibition, Ki Average): 13.5 µM | Human alpha thrombin inhibition, slope normalized to DMSO [2, 4]: 31.6 and 35.9 and 30.7 | Human alpha thrombin inhibition, slope normalized to DMSO [2, 5]: 101.3 and 100.2 and 102.3 | Human alpha thrombin inhibition, slope normalized to DMSO [2, 6]: 84.3 and 92.4 and 75.3 | Human alpha thrombin inhibition, slope normalized to DMSO [2, 7]: 48.4 and 51.8 and 74.4 | Human alpha thrombin inhibition, slope normalized to DMSO [2, 8]: 103.9 and 109.7 and 90.7 | Human alpha thrombin inhibition, slope normalized to DMSO [2, 9]: 99.7 and 78.4 and 78.8 | Human alpha thrombin inhibition, slope normalized to DMSO [2, 10]: 77.5 and 96.9 and 61.6 | Human alpha thrombin inhibition, slope normalized to DMSO [2, 11]: 89.1 and 92.2 and 110.9 | Human alpha thrombin inhibition, slope normalized to DMSO [2, 12]: 100.0 and 95.0 and 108.2 | Human alpha thrombin inhibition, slope normalized to DMSO [2, 13]: 94.6 and 85.5 and 101.2 | Human alpha thrombin inhibition, slope normalized to DMSO [2, 14]: 53.9 and 24.7 and 59.2 | Human alpha thrombin inhibition, slope normalized to DMSO [2, 15]: 85.8 and 106.8 and 92.3 | Human alpha thrombin inhibition, slope normalized to DMSO [2, 16]: 95.0 and 56.6 and 60.0 | Human alpha thrombin inhibition, slope normalized to DMSO [2, 17]: 92.8 and 100.9 and 102.1 | Human alpha thrombin inhibition, slope normalized to DMSO [2, 18]: 92.5 and 76.5 and 47.1 | Human alpha thrombin inhibition, slope normalized to DMSO [2, 19]: 103.7 and 96.6 and 101.3 | Human alpha thrombin inhibition, slope normalized to DMSO [2, 20]: 96.6 and 92.9 and 84.5 | Human alpha thrombin inhibition, slope normalized to DMSO [2, 21]: 32.5 and 38.9 and 43.6 | Human alpha thrombin inhibition, slope normalized to DMSO [2, 22]: 87.4 and 95.7 and 97.4 | Human alpha thrombin inhibition, slope normalized to DMSO [2, 23]: 82.6 and 51.0 and 64.7 | Human alpha thrombin inhibition, slope normalized to DMSO [2, 24]: 95.6 and 106.3 and 100.0 | Human alpha thrombin inhibition, slope normalized to DMSO [2, 25]: 102.1 and 69.9 and 79.9 | Human alpha thrombin inhibition, slope normalized to DMSO [2, 26]: 104.1 and 95.0 and 102.4 | Human alpha thrombin inhibition, slope normalized to DMSO [2, 27]: 95.1 and 96.0 and 81.6 | Ki ([3]; average of R1-R3, read-out: Rat alpha thrombin inhibition, Ki Average): 5.05 µM | Rat alpha thrombin inhibition, slope normalized to DMSO [3, 4]: 15.8 and 16.4 and 8.2 | Rat alpha thrombin inhibition, slope normalized to DMSO [3, 5]: 106.1 and 100.1 and 101.4 | Rat alpha thrombin inhibition, slope normalized to DMSO [3, 6]: 97.4 and 88.6 and 86.5 | Rat alpha thrombin inhibition, slope normalized to DMSO [3, 7]: 49.8 and 47.2 and 35.5 | Rat alpha thrombin inhibition, slope normalized to DMSO [3, 8]: 108.8 and 100.7 and 95.7 | Rat alpha thrombin inhibition, slope normalized to DMSO [3, 9]: 89.9 and 88.6 and 50.7 | Rat alpha thrombin inhibition, slope normalized to DMSO [3, 10]: 112.7 and 100.1 and 96.0 | Rat alpha thrombin inhibition, slope normalized to DMSO [3, 11]: 101.4 and 102.2 and 81.9 | Rat alpha thrombin inhibition, slope normalized to DMSO [3, 12]: 107.4 and 102.3 and 104.3 | Rat alpha thrombin inhibition, slope normalized to DMSO [3, 13]: 116.5 and 84.1 and 102.5 | Rat alpha thrombin inhibition, slope normalized to DMSO [3, 14]: 36.8 and 26.2 and 18.8 | Rat alpha thrombin inhibition, slope normalized to DMSO [3, 15]: 100.6 and 93.4 and 89.7 | Rat alpha thrombin inhibition, slope normalized to DMSO [3, 16]: 83.7 and 72.5 and 77.4 | Rat alpha thrombin inhibition, slope normalized to DMSO [3, 17]: 105.1 and 100.1 and 102.4 | Rat alpha thrombin inhibition, slope normalized to DMSO [3, 18]: 105.0 and 93.1 and 59.9 | Rat alpha thrombin inhibition, slope normalized to DMSO [3, 19]: 108.7 and 101.6 and 109.2 | Rat alpha thrombin inhibition, slope normalized to DMSO [3, 20]: 113.8 and 100.8 and 93.5 | Rat alpha thrombin inhibition, slope normalized to DMSO [3, 21]: 30.2 and 11.5 and 16.5 | Rat alpha thrombin inhibition, slope normalized to DMSO [3, 22]: 96.7 and 102.7 and 104.0 | Rat alpha thrombin inhibition, slope normalized to DMSO [3, 23]: 71.7 and 61.7 and 68.8 | Rat alpha thrombin inhibition, slope normalized to DMSO [3, 24]: 91.7 and 100.9 and 102.6 | Rat alpha thrombin inhibition, slope normalized to DMSO [3, 25]: 88.3 and 82.4 and 91.2 | Rat alpha thrombin inhibition, slope normalized to DMSO [3, 26]: 111.4 and 103.7 and 104.6 | Rat alpha thrombin inhibition, slope normalized to DMSO [3, 27]: 106.1 and 99.6 and 107.1 | IC50 ([3]; single replicates R1-R3, read-out: Rat alpha thrombin inhibition, IC50): 11.8 µM and 9.26 µM and 6.34 µM | Ki ([3]; single replicates R1-R3, read-out: Rat alpha thrombin inhibition, Ki): 6.5 µM and 5.12 µM and 3.51 µM
Compound: O=C1C[C@H]2CCCN2C(=O)[C@H](Cc2ccccc2)NC(=O)[C@@H](NC(=O)c2ccc(Cl)s2)CC=CCCN1 [compound 38]
